Test results: patent US12528802B2, “Heterocyclic compound” (Takeda Pharmaceutical Company Limited, priority 2019, dated 2026)

Target: T1, glucosylceramide synthase (Homo sapiens, UniProt Q16739)
T1 construct: made in house; host or cells: Expi293F cells (transient expression, pcDNA3.3-TOPO vector); microsome fraction used as enzyme source
T1 sequence (Q16739 1-394): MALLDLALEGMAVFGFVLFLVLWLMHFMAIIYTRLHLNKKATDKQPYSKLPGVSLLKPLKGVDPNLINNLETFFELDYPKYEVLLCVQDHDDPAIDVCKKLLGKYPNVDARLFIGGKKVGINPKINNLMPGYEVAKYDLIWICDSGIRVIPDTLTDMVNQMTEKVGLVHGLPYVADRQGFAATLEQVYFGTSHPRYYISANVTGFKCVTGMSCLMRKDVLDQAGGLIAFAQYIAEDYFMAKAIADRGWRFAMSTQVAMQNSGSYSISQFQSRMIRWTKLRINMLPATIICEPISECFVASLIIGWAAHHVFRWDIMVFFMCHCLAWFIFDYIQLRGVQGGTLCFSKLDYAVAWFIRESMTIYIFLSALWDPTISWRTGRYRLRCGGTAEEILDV
Experiment: Glucosylceramide synthase (GCS) enzyme assay, microsome fraction, C8 glucosylceramide quantified by Rapidfire MS/MS
Assay type: biochemical
Details: test compound 10 μM; 1.7 μM UDP-glucose, 3 μM C8 ceramide; room temperature 60 min; read-out: GCS enzyme inhibitory rate at 10 μM (%) (% of control)
Method in brief: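 Test compound, 10 μM final, was run against human GCS from transfected Expi293F microsome fractions, using substrate solution of 6 μM C8 ceramide (in DOPC liposomes) plus 3.4 μM UDP-glucose, pH 7.5 Tris buffer, 60 min, room temperature. Product C8 glucosylceramide measured by Rapidfire MS/MS against an internal standard, % inhibition referenced to no-enzyme and DMSO wells.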

Structure (SMILES) | inhibition at 10 µM [%]
N#CCc1ccc(N2Cc3c(ccnc3-c3ccc(F)cc3OCC(F)(F)F)C2=O)cc1 [Example 237, (4-{4-[4-fluoro-2-(2,2,2-trifluoroethoxy)phenyl]-1-oxo-1,3-dihydro-2H-pyrrolo[3,4-c]pyridin-2-yl}phenyl)acetonitrile] | 91
Cn1nc(N2Cc3c(ccnc3-c3ccc(F)cc3OCC(F)(F)F)C2=O)cc1C1CC1 [Example 239, 2-(5-cyclopropyl-1-methyl-1H-pyrazol-3-yl)-4-[4-fluoro-2-(2,2,2-trifluoroethoxy)phenyl]-2,3-dihydro-1H-pyrrolo[3,4-c]pyridin-1-one] | 51
CC(C)(O)c1ccc(N2Cc3c(ccnc3-c3ccc(F)cc3OCC(F)F)C2=O)cc1 [Example 241, 4-[2-(2,2-difluoroethoxy)-4-fluorophenyl]-2-[4-(2-hydroxypropan-2-yl)phenyl]-2,3-dihydro-1H-pyrrolo[3,4-c]pyridin-1-one] | 98
O=C1c2ccnc(-c3ccccc3OCC(F)(F)F)c2CN1c1ccc(C2(O)CCOCC2)cc1 [Example 242, 2-[4-(4-hydroxyoxan-4-yl)phenyl]-4-[2-(2,2,2-trifluoroethoxy)phenyl]-2,3-dihydro-1H-pyrrolo[3,4-c]pyridin-1-one] | 100
N#CC1(c2ccc(N3Cc4c(ccnc4-c4ccc(F)cc4OCC(F)(F)F)C3=O)cc2)CC1 [Example 244, 1-(4-{4-[4-fluoro-2-(2,2,2-trifluoroethoxy)phenyl]-1-oxo-1,3-dihydro-2H-pyrrolo[3,4-c]pyridin-2-yl}phenyl)cyclopropane-1-carbonitrile] | 89
O=C1c2ccnc(-c3ccc(F)cc3OCC(F)(F)F)c2CN1c1ccc(C(O)(C(F)F)C(F)F)cc1 [Example 245, 4-[4-fluoro-2-(2,2,2-trifluoroethoxy)phenyl]-2-[4-(1,1,3,3-tetrafluoro-2-hydroxypropan-2-yl)phenyl]-2,3-dihydro-1H-pyrrolo[3,4-c]pyridin-1-one] | 100
O=C1c2ccnc(-c3ccccc3OCC(F)(F)F)c2CN1c1ccc(C(O)(C(F)F)C(F)F)cc1 [Example 246, 2-[4-(1,1,3,3-tetrafluoro-2-hydroxypropan-2-yl)phenyl]-4-[2-(2,2,2-trifluoroethoxy)phenyl]-2,3-dihydro-1H-pyrrolo[3,4-c]pyridin-1-one] | 100
O=C1c2ccnc(-c3ccccc3OCC(F)(F)F)c2CN1c1cnn(CC2(F)COC2)c1 [Example 247, 2-{1-[(3-fluorooxetan-3-yl)methyl]-1H-pyrazol-4-yl}-4-[2-(2,2,2-trifluoroethoxy)phenyl]-2,3-dihydro-1H-pyrrolo[3,4-c]pyridin-1-one] | 97
O=C1c2ccnc(-c3ccccc3OCC(F)(F)F)c2CN1c1cnn(CC2(F)CC2)c1 [Example 248, 2-{1-[(1-fluorocyclopropyl)methyl]-1H-pyrazol-4-yl}-4-[2-(2,2,2-trifluoroethoxy)phenyl]-2,3-dihydro-1H-pyrrolo[3,4-c]pyridin-1-one] | 99
O=C1c2ccnc(-c3ccccc3OCC(F)(F)F)c2CN1c1ccc(C2(O)COC2)cn1 [Example 252, 2-[5-(3-hydroxyoxetan-3-yl)pyridin-2-yl]-4-[2-(2,2,2-trifluoroethoxy)phenyl]-2,3-dihydro-1H-pyrrolo[3,4-c]pyridin-1-one] | 98
CC(C)(CO)c1ccc(N2Cc3c(ccnc3-c3ccc(F)cc3OCC(F)(F)F)C2=O)cc1 [Example 253, 4-[4-fluoro-2-(2,2,2-trifluoroethoxy)phenyl]-2-[4-(1-hydroxy-2-methylpropan-2-yl)phenyl]-2,3-dihydro-1H-pyrrolo[3,4-c]pyridin-1-one] | 98
CC(C)(O)COc1ccc(N2Cc3c(ccnc3-c3ccc(F)cc3OCC(F)(F)F)C2=O)cc1 [Example 254, 4-[4-fluoro-2-(2,2,2-trifluoroethoxy)phenyl]-2-[4-(2-hydroxy-2-methylpropoxy)phenyl]-2,3-dihydro-1H-pyrrolo[3,4-c]pyridin-1-one] | 99
CC(C)(O)COc1ccc(N2Cc3c(ccnc3-c3ccc(F)cc3OCC(F)(F)F)C2=O)nc1 [Example 255, 4-[4-fluoro-2-(2,2,2-trifluoroethoxy)phenyl]-2-[5-(2-hydroxy-2-methylpropoxy)pyridin-2-yl]-2,3-dihydro-1H-pyrrolo[3,4-c]pyridin-1-one] | 100
O=C1c2ccnc(-c3ccc(F)cc3OCC(F)(F)F)c2CN1c1ccc(C2(O)CCOCC2)cn1 [Example 257, 4-[4-fluoro-2-(2,2,2-trifluoroethoxy)phenyl]-2-[5-(4-hydroxyoxan-4-yl)pyridin-2-yl]-2,3-dihydro-1H-pyrrolo[3,4-c]pyridin-1-one] | 99
CC(=O)N1CC(O)(c2ccc(N3Cc4c(ccnc4-c4ccccc4OCC(F)(F)F)C3=O)cc2)C1 [Example 258, 2-[4-(1-acetyl-3-hydroxyazetidin-3-yl)phenyl]-4-[2-(2,2,2-trifluoroethoxy)phenyl]-2,3-dihydro-1H-pyrrolo[3,4-c]pyridin-1-one] | 70
O=C1c2ccnc(-c3ccccc3OCC(F)(F)F)c2CN1c1ccc(C2(O)CNC2)cc1 [Example 259, 2-[4-(3-hydroxyazetidin-3-yl)phenyl]-4-[2-(2,2,2-trifluoroethoxy)phenyl]-2,3-dihydro-1H-pyrrolo[3,4-c]pyridin-1-one] | 85
O=C1c2ccnc(-c3ccccc3OCC(F)(F)F)c2CN1c1ccc(C(O)(C(F)(F)F)C(F)(F)F)cc1 [Example 260, 2-[4-(1,1,1,3,3,3-hexafluoro-2-hydroxypropan-2-yl)phenyl]-4-[2-(2,2,2-trifluoroethoxy)phenyl]-2,3-dihydro-1H-pyrrolo[3,4-c]pyridin-1-one] | 100
O=C(C1CC1)N1CC(O)(c2ccc(N3Cc4c(ccnc4-c4ccccc4OCC(F)(F)F)C3=O)cc2)C1 [Example 261, 2-{4-[1-(cyclopropanecarbonyl)-3-hydroxyazetidin-3-yl]phenyl}-4-[2-(2,2,2-trifluoroethoxy)phenyl]-2,3-dihydro-1H-pyrrolo[3,4-c]pyridin-1-one] | 93
CC(C)(O)c1ccc(N2Cc3c(ccnc3-c3ccccc3OCC(F)(F)F)C2=O)cc1F [Example 262, 2-[3-fluoro-4-(2-hydroxypropan-2-yl)phenyl]-4-[2-(2,2,2-trifluoroethoxy)phenyl]-2,3-dihydro-1H-pyrrolo[3,4-c]pyridin-1-one] | 100
O=C1c2ccnc(-c3ccccc3OCC(F)(F)F)c2CN1c1ccc(C2(O)CC2)cn1 [Example 265, 2-[5-(1-hydroxycyclopropyl)pyridin-2-yl]-4-[2-(2,2,2-trifluoroethoxy)phenyl]-2,3-dihydro-1H-pyrrolo[3,4-c]pyridin-1-one] | 100
CC(C)(C)[Si](C)(C)OC1(c2ccc(N3Cc4c(ccnc4-c4ccccc4OCC(F)(F)F)C3=O)nc2)CC1 [Example 266, 2-[5-(1-{[tert-butyl(dimethyl)silyl]oxy}cyclopropyl)pyridin-2-yl]-4-[2-(2,2,2-trifluoroethoxy)phenyl]-2,3-dihydro-1H-pyrrolo[3,4-c]pyridin-1-one] | 99
O=C1c2ccnc(-c3ccc(F)cc3OCC(F)F)c2CN1c1ccc(C2(O)CCC2)cc1 [Example 267, 4-[2-(2,2-difluoroethoxy)-4-fluorophenyl]-2-[4-(1-hydroxycyclobutyl)phenyl]-2,3-dihydro-1H-pyrrolo[3,4-c]pyridin-1-one] | 99
CS(=O)(=O)c1ccc(N2Cc3c(ccnc3-c3ccccc3OCC(F)(F)F)C2=O)nc1 [Example 268, 2-[5-(methanesulfonyl)pyridin-2-yl]-4-[2-(2,2,2-trifluoroethoxy)phenyl]-2,3-dihydro-1H-pyrrolo[3,4-c]pyridin-1-one] | 91
CC(C)(C#N)c1ccc(N2Cc3c(ccnc3-c3ccc(F)cc3OCC(F)(F)F)C2=O)cc1 [Example 269, 2-(4-{4-[4-fluoro-2-(2,2,2-trifluoroethoxy)phenyl]-1-oxo-1,3-dihydro-2H-pyrrolo[3,4-c]pyridin-2-yl}phenyl)-2-methylpropanenitrile] | 99
O=C1c2ccnc(-c3ccc(F)cc3OCC(F)(F)F)c2CN1c1ccc(C(O)(C(F)(F)F)C(F)(F)F)cc1 [Example 270, 4-[4-fluoro-2-(2,2,2-trifluoroethoxy)phenyl]-2-[4-(1,1,1,3,3,3-hexafluoro-2-hydroxypropan-2-yl)phenyl]-2,3-dihydro-1H-pyrrolo[3,4-c]pyridin-1-one] | 99
N#CC1(c2ccc(N3Cc4c(ccnc4-c4ccccc4OCC(F)(F)F)C3=O)cc2)CC1 [Example 271, 1-(4-{1-oxo-4-[2-(2,2,2-trifluoroethoxy)phenyl]-1,3-dihydro-2H-pyrrolo[3,4-c]pyridin-2-yl}phenyl)cyclopropane-1-carbonitrile] | 100
CC(C)(O)c1ccc(N2Cc3c(ccnc3-c3ccncc3OCC(F)(F)F)C2=O)cc1F [Example 272, 2-[3-fluoro-4-(2-hydroxypropan-2-yl)phenyl]-4-[3-(2,2,2-trifluoroethoxy)pyridin-4-yl]-2,3-dihydro-1H-pyrrolo[3,4-c]pyridin-1-one] | 96
